Structures can show the parent of a compound that is named as a salt.
target: human KV7.2/KV7.3 (Homo sapiens (Human), UniProt O43525+O43526); assay: Potassium flux assay (IPG-2 AM dye); format: cell-based; details: TREX HEK 293 or HEK 293 cells expressing human KV7.2/KV7.3; arithmetic mean values
Outline: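 EC50 from 16 concentrations (2-fold dilutions, top 30 μM), scaled between DMSO baseline and a known KV7.x modulator maximum. Signal is IPG-2 AM fluorescence (ex 530/em 558 nm) after 10 mM KCl challenge buffer addition, following 20 min room-temperature compound exposure of HEK 293 or TREX HEK 293 cells stably expressing human KV7.2/KV7.3.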

SMILES | EC50 [µM]
Cc1ncc(Nc2nccc3cc(OCC4(F)CC4)ccc23)cc1Cl [Example 45, N-(5-chloro-6-methylpyridin-3-yl)-6-((1-fluorocyclopropyl)methoxy)isoquinolin-1-amine] | ≥ 30
Clc1ccc(Nc2nccc3cc(OCCCCCn4cncn4)ccc23)cn1 [Example 168, 6-((5-(1H-1,2,4-triazol-1-yl)pentyl)oxy)-N-(6-chloropyridin-3-yl)isoquinolin-1-amine] | 1 to 10
Cn1cc(F)c(COc2ccc3c(Nc4ccc(Cl)nc4)nccc3c2)n1 [Example 397, N-(6-chloropyridin-3-yl)-6-((4-fluoro-1-methyl-1H-pyrazol-3-yl)methoxy)isoquinolin-1-amine formate] | < 1
Cc1ccc(Nc2nccc3cc(OCc4ccncc4)ccc23)cn1 [Example 200, N-(6-methylpyridin-3-yl)-6-(pyridin-4-ylmethoxy)isoquinolin-1-amine] | 1 to 10
Cc1ncc(Nc2nccc3cc(O[C@H]4CCC[C@@H](O)C4)ccc23)cn1 [Example 339, (1R,3S)-3-((1-((2-methylpyrimidin-5-yl)amino)isoquinolin-6-yl)oxy)cyclohexan-1-ol] | < 1
Clc1ccc(Nc2nccc3ccccc23)cn1 [Example 33, N-(6-chloropyridin-3-yl)isoquinolin-1-amine] | 1 to 10
Clc1ccc(Nc2nccc3cc(Oc4ccccc4)ccc23)cn1 [Example 8, N-(6-chloropyridin-3-yl)-6-phenoxyisoquinolin-1-amine] | 1 to 10
Clc1ccc(Nc2nccc3cc(OCCn4cccn4)ccc23)cn1 [Example 120, 6-(2-(1H-pyrazol-1-yl)ethoxy)-N-(6-chloropyridin-3-yl)isoquinolin-1-amine] | 10 to 30
FC(F)COc1ccc2c(Nc3ccc(Cl)nc3)nccc2c1 [Example 417, N-(6-chloropyridin-3-yl)-6-(2,2-difluoroethoxy)isoquinolin-1-amine] | 1 to 10
Clc1ccc(Nc2nccc3cc(OC4CCC4)ccc23)cn1 [Example 411, N-(6-chloropyridin-3-yl)-6-cyclobutoxyisoquinolin-1-amine] | 1 to 10
Cc1cnc(Nc2ccc(Cl)nc2)c2[nH]ccc12 [Example 35, N-(6-chloropyridin-3-yl)-4-methyl-1H-pyrrolo[2,3-c]pyridin-7-amine] | 1 to 10
CC1(COc2ccc3c(Nc4ccc(Cl)nc4)nccc3c2)CS(=O)(=O)C1 [Example 293, 3-(((1-((6-chloropyridin-3-yl)amino)isoquinolin-6-yl)oxy)methyl)-3-methylthietane 1,1-dioxide] | < 1
CCCOc1ccc2c(Nc3ccc(Cl)nc3)nccc2c1 [Example 3, N-(6-chloropyridin-3-yl)-6-propoxyisoquinolin-1-amine] | 1 to 10
FC(F)n1cc(COc2ccc3c(Nc4ccc(Cl)nc4)nccc3c2)cn1 [Example 279, N-(6-chloropyridin-3-yl)-6-((1-(difluoromethyl)-1H-pyrazol-4-yl)methoxy)isoquinolin-1-amine] | < 1
Cn1ccnc1COc1ccc2c(Nc3ccc(Cl)nc3)nccc2c1 [Example 198, N-(6-chloropyridin-3-yl)-6-((1-methyl-1H-imidazol-2-yl)methoxy)isoquinolin-1-amine] | 1 to 10
F[C@H]1C[C@H](Oc2ccc3c(Nc4ccc(Cl)nc4)nccc3c2)C1 [Example 408, N-(6-chloropyridin-3-yl)-6-((1r,3r)-3-fluorocyclobutoxy)isoquinolin-1-amine] | 1 to 10
Clc1ccc(Nc2nccc3cc(OCc4cnn5c4CCCC5)ccc23)cn1 [Example 285] | 1 to 10
CS(=O)(=Nc1ccc2c(Nc3ccc(Cl)nc3)nccc2c1)C1CC1 (stereo in doubt) [Example 273, (R)-((1-((6-chloropyridin-3-yl)amino)isoquinolin-6-yl)imino)(cyclopropyl)(methyl)-λ^6-sulfanone] | 1 to 10
Fc1ccc2c(Nc3ccc(Cl)nc3)nccc2c1 [Example 18, N-(6-chloropyridin-3-yl)-6-fluoroisoquinolin-1-amine formate] | 1 to 10
O=S1(=O)CC[C@@H](Oc2ccc3c(Nc4ccc(Cl)nc4)nccc3c2)C1 [Example 261, (R)-3-((1-((6-chloropyridin-3-yl)amino)isoquinolin-6-yl)oxy)tetrahydrothiophene 1,1-dioxide] | 1 to 10
Clc1ccc(Nc2nccc3cc(OCCOC4CC4)ccc23)cn1 [Example 39, N-(6-chloropyridin-3-yl)-6-(2-cyclopropoxyethoxy)isoquinolin-1-amine] | 1 to 10
CS(=O)(=Nc1ccc2c(Nc3ccc(Cl)nc3)nccc2c1)C1COC1 (stereo in doubt) [Example 277, (R)-((1-((6-chloropyridin-3-yl)amino)isoquinolin-6-yl)imino)(methyl)(oxetan-3-yl)-λ^6-sulfanone)] | 1 to 10
Clc1ccc(Nc2nccc3cc(OC4CC5CCC(C4)N5Cc4ccccc4)ccc23)cn1 (stereo not drawn) [Example 97, 6-((8-benzyl-8-azabicyclo[3.2.1]octan-3-yl)oxy)-N-(6-chloropyridin-3-yl)isoquinolin-1-amine] | 10 to 30

SMILES | EC50 [µM]
CC1(C)CCC(COc2ccc3c(Nc4cnc(Cl)nc4)nccc3c2)O1 (stereo not drawn) [Example 420] | 1 to 10
CC1(COc2ccc3c(Nc4cnc(Cl)c(N)c4)nccc3c2)COC1 [Example 163, 2-chloro-N^5-(6-((3-methyloxetan-3-yl)methoxy)isoquinolin-1-yl)pyridine-3,5-diamine] | < 1
Clc1ccc(Nc2nccc3cc(OC4CCOC4)ccc23)cn1 (stereo not drawn) [Example 263, N-(6-chloropyridin-3-yl)-6-((tetrahydrofuran-3-yl)oxy)isoquinolin-1-amine] | < 1
FC(F)(F)OCCOc1ccc2c(Nc3ccc(Cl)nc3)nccc2c1 [Example 184, N-(6-chloropyridin-3-yl)-6-(2-(trifluoromethoxy)ethoxy)isoquinolin-1-amine] | 1 to 10
Clc1ccc(Nc2nccc3cc(OCc4ccon4)ccc23)cn1 [Example 215, N-(6-chloropyridin-3-yl)-6-(isoxazol-3-ylmethoxy)isoquinolin-1-amine] | < 1
FC1(COc2ccc3c(Nc4ccc(Cl)nc4)nccc3c2)CNC1 [Example 59, N-(6-chloropyridin-3-yl)-6-((3-fluoroazetidin-3-yl)methoxy)isoquinolin-1-amine hydrochloride] | 10 to 30
Clc1ncc(Nc2nccc3cc(OCC4CC4)ccc23)cn1 [Example 9, N-(2-chloropyrimidin-5-yl)-6-(cyclopropylmethoxy)isoquinolin-1-amine] | < 1
OCC1(COc2ccc3c(Nc4ccc(Cl)nc4)nccc3c2)COC1 [Example 329, (3-(((1-((6-chloropyridin-3-yl)amino)isoquinolin-6-yl)oxy)methyl)oxetan-3-yl)methanol] | 1 to 10
O=C(Nc1ccc2c(Nc3ccc(Cl)nc3)nccc2c1)C1(CO)CC1 [Example 401, N-(1-((6-chloropyridin-3-yl)amino)isoquinolin-6-yl)-1-(hydroxymethyl)cyclopropane-1-carboxamide] | ≥ 30
Cc1ncc(Nc2nccc3cc(OCC4(F)CC4)ccc23)cn1 [Example 189, 6-((1-fluorocyclopropyl)methoxy)-N-(2-methylpyrimidin-5-yl)isoquinolin-1-amine] | < 1
F[C@H]1C[C@H]1COc1ccc2c(Nc3ccc(Cl)nc3)nccc2c1 [Example 414, N-(6-chloropyridin-3-yl)-6-(((1S,2S)-2-fluorocyclopropyl)methoxy)isoquinolin-1-amine] | 1 to 10
O[C@@H]1CCC[C@H](Oc2ccc3c(Nc4ccc(Cl)nc4)nccc3c2)C1 [Example 346, (1R,3S)-3-((1-((6-chloropyridin-3-yl)amino)isoquinolin-6-yl)oxy)cyclohexan-1-ol] | < 1
Clc1ccc(Nc2nccc3cc(OCCC4CC4)ccc23)cn1 [Example 180, N-(6-chloropyridin-3-yl)-6-(2-cyclopropylethoxy)isoquinolin-1-amine] | 10 to 30
Cc1ncc(Nc2nccc3cc(OCC4(F)COC4)ccc23)cn1 [Example 57, 6-((3-fluorooxetan-3-yl)methoxy)-N-(2-methylpyrimidin-5-yl)isoquinolin-1-amine] | 1 to 10
Clc1ccc(Nc2nccc3cc(OC4CCN(Cc5ccccc5)C4)ccc23)cn1 (stereo not drawn) [Example 282, 6-((1-benzylpyrrolidin-3-yl)oxy)-N-(6-chloropyridin-3-yl)isoquinolin-1-amine] | 1 to 10
Clc1ccc(Nc2ncc(NCc3ccccc3)c3cc[nH]c23)cn1 [Example 403, N^4-benzyl-N^7-(6-chloropyridin-3-yl)-1H-pyrrolo[2,3-c]pyridine-4,7-diamine] | 10 to 30
Clc1ncc(Nc2nccc3cccnc23)cn1 [Example 32, N-(2-chloropyrimidin-5-yl)-1,7-naphthyridin-8-amine] | 1 to 10
CS(=O)(=O)CCCOc1ccc2c(Nc3ccc(Cl)nc3)nccc2c1 [Example 191, N-(6-chloropyridin-3-yl)-6-(3-(methylsulfonyl)propoxy)isoquinolin-1-amine] | 1 to 10
COCCOc1ccc2c(Nc3ccc(Cl)nc3)nccc2c1 [Example 4, N-(6-chloropyridin-3-yl)-6-(2-methoxyethoxy)isoquinolin-1-amine] | 1 to 10
Clc1ccc(Nc2nccc3cc(OCc4ncco4)ccc23)cn1 [Example 211, N-(6-chloropyridin-3-yl)-6-(oxazol-2-ylmethoxy)isoquinolin-1-amine] | 1 to 10
Cc1ncc(Nc2nccc3cc(OCC4CCOC4)ccc23)cn1 (stereo not drawn) [Example 25, N-(2-methylpyrimidin-5-yl)-6-((tetrahydrofuran-3-yl)methoxy)isoquinolin-1-amine] | 1 to 10
Clc1ncc(Nc2nccc3cc(OCc4cnoc4)ccc23)cn1 [Example 242, N-(2-chloropyrimidin-5-yl)-6-(isoxazol-4-ylmethoxy)isoquinolin-1-amine] | < 1

Reference: patent publication US20240101531A1, “PYRIDINAMINE DERIVATIVES AND THEIR USE AS POTASSIUM CHANNEL MODULATORS” (Xenon Pharmaceuticals Inc., priority 2022, published 2024)
